Results reported in publication PMC9636434, “Discovery of small molecule agonists of the Relaxin Family Peptide Receptor 2” (Communications Biology, 2022).
“And” between values parts separate entries of the source, which are not always exact repeats. Equal entries are not always repeated.

Legend:
[1] = target: T1, human RXFP1 (Homo sapiens, UniProt Q9HBX9); assay: HTRF cAMP counter-screen in HEK293T cells expressing human RXFP1; assay type: cell-based; conditions: human RXFP1, positive control, experiments (1)-(3)
T1 construct: FLAG (N); expressed in transfected cells
T1 sequence (Q9HBX9 1-757): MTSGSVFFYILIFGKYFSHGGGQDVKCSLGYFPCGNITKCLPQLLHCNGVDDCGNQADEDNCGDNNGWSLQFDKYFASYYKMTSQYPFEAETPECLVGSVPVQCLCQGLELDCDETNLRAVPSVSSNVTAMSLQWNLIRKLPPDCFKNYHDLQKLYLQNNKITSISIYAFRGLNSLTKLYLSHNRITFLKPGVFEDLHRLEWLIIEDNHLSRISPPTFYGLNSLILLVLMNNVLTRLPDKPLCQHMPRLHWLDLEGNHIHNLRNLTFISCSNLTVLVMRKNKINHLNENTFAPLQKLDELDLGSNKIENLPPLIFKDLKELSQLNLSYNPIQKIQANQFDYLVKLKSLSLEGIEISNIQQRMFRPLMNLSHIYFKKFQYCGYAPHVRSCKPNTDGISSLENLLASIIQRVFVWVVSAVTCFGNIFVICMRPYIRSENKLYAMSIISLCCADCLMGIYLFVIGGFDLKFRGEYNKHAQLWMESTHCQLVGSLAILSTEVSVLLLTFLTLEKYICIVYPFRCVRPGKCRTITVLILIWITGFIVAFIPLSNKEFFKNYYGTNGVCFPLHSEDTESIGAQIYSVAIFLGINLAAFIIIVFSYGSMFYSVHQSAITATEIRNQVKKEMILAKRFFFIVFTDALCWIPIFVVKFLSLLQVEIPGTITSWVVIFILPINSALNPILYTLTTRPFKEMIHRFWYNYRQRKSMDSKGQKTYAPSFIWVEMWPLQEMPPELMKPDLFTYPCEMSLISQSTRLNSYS
Procedure: (§1) The HTRF Gs dynamic cAMP assay kit (CisBio, Bedford, MA) was used to measure intracellular cAMP accumulation in HEK293T cells (ATCC, Manassas, VA)[56]. […] The cell stock was verified mycoplasma free and authenticated by ATCC. Transient transfection was accomplished by treating cells in a 6-well plate with a mixture of 2 μg plasmid and 6 μL Lipofectamine 2000 (Invitrogen, Waltham, MA) per manufacturer’s protocol and incubating overnight. For cAMP measurement in 96-well format, HEK293T cells stably transfected with human RXFP2 (HEK-RXFP2), human RXFP1 (HEK-RXFP1), mouse Rxfp1 (HEK-Rxfp1) or transiently transfected with human RXFP1-RXFP2 chimeric receptors were seeded between 7500 and 30,000 cells per well, depending on cell line responsiveness, in serum-free DMEM medium and incubated overnight at 37 °C, 5% CO2. After 18 h, cells were treated with a titration of compound, 2 μM forskolin, or DMSO vehicle. Control wells were also treated with a titration of INSL3 (Phoenix Pharmaceuticals, Burlingame, CA) or human recombinant relaxin 2 (Peprotech, Cranbury, NJ). For the RXFP2 antagonist experiment, cells were co-treated with 0.28 μM compound or 30 nM INSL3 and a titration of the INSL3 B dimer antagonist[38],[39]. For the INSL3 allosteric modulation experiment, cells were co-treated with 0.025, 0.0025, or 0.00025 μM of compound and a titration of INSL3. Cells were incubated for 1 h at 37 °C, 5% CO2, and then kit cAMP-d2 and anti-cAMP antibody were added per manufacturer protocol. Plates were incubated for 1 h at room temperature and the signal was read on a CLARIOstar plate reader (BMG Labtech, Ortenberg, Germany) at 665 and 620 nm emission wavelengths. […]
(§2) receptors. HTRF cAMP counter-screen of RXFP2 agonists in HEK293T cells expressing a human RXFP1 and b mouse RXFP1. Relaxin 2 was used as positive control for RXFP1 receptor activation. Results are expressed as mean ± SEM of 3

[2] = target: T2, mouse RXFP1 (Mus musculus, UniProt Q6R6I7); assay: HTRF cAMP counter-screen in HEK293T cells expressing mouse RXFP1; assay type: cell-based; conditions: mouse RXFP1, positive control, experiments (1)-(3)
T2 construct: FLAG (N); expressed in transfected cells
T2 sequence (Q6R6I7 1-758): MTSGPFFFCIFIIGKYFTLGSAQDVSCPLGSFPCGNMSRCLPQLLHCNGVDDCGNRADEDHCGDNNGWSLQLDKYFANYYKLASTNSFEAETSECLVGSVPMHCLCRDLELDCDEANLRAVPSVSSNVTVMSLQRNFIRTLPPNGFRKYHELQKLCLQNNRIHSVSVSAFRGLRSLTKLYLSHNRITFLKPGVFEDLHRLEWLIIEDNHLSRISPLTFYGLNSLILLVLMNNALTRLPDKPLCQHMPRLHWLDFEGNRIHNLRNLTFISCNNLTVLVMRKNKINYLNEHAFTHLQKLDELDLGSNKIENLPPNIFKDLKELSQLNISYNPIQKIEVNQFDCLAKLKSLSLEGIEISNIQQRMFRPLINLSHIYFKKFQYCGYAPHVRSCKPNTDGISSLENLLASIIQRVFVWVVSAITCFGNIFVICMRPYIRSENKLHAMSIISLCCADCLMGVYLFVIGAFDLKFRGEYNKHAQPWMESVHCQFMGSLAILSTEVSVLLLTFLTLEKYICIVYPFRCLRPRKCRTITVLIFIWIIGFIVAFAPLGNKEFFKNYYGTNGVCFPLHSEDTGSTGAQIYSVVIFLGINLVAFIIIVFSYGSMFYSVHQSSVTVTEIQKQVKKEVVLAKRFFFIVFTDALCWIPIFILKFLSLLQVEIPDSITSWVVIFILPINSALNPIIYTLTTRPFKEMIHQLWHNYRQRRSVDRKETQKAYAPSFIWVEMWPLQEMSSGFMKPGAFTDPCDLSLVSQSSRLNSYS
Procedure: as §1, §2

[3] = target: chimera RXFP2-1 (extracellular domain of RXFP2, transmembrane domain of RXFP1) (human); set-up: EC50 of the cAMP response (HTRF cAMP assay, transiently transfected HEK293T cells): unit not given beside the values

| % Eff (cAMP) ([1]; Log [M] -7) | % Eff (cAMP) ([1]; Log [M] -8) | % Eff (cAMP) ([1]; Log [M] -9) | % Eff (cAMP) ([1]; Log [M] -11) | % Eff (cAMP) ([2]; Log [M] -7) | % Eff (cAMP) ([2]; Log [M] -8) | % Eff (cAMP) ([2]; Log [M] -9) | % Eff (cAMP) ([2]; Log [M] -10) | % Eff (cAMP) ([2]; Log [M] -11) | EC50 of the cAMP response (HTRF cAMP assay, transiently transfected HEK293T cells) [3] | Emax of the cAMP response (HTRF cAMP assay, transiently transfected HEK293T cells; normalized to 2 µM FSK as 100% efficacy) [3] | Substance |
| --- | --- | --- | --- | --- | --- | --- | --- | --- | --- | --- | --- |
| 514.186% and 485.16% and 431.341% | 600.088% and 494.195% and 523.956% | 370.096% and 250.531% and 374.784% | -0.2294% and 1.737% and 3.775% | 488.966% and 468.543% and 521.705% | 318.502% and 312.701% and 407.269% | 105.124% and 102.88% and 64.6466% | 7.396% and 8.915% and 6.254% | 0.7539% and 1.08% and 0.2993% | – | – | Relaxin |
| – | – | – | – | – | – | – | – | – | 0.74 | 92.3 | insulin-like factor 3 peptide (INSL3) (ligand) |
